Results: PMC11440035, “Interaction of myricetin, ampelopsin (dihydromyricetin), and their sulfate metabolites with serum albumin, cytochrome P450 (CYP2C9, 2C19, and 3A4) enzymes, and organic anion‐transporting polypeptides (OATP1B1 and OATP2B1)” (Pharmacology Research & Perspectives, 2024)
One block for each compound: values may come before it.

Assays:
OATP2B1 [1] = target: T1, OATP2B1 (Homo sapiens, UniProt O94956); design: method as in PMID 32661014; details: positive control, same experimental model; cited from earlier work
T1 construct: expressed in transfected cells; host or cells: A431
T1 sequence (O94956 1-709): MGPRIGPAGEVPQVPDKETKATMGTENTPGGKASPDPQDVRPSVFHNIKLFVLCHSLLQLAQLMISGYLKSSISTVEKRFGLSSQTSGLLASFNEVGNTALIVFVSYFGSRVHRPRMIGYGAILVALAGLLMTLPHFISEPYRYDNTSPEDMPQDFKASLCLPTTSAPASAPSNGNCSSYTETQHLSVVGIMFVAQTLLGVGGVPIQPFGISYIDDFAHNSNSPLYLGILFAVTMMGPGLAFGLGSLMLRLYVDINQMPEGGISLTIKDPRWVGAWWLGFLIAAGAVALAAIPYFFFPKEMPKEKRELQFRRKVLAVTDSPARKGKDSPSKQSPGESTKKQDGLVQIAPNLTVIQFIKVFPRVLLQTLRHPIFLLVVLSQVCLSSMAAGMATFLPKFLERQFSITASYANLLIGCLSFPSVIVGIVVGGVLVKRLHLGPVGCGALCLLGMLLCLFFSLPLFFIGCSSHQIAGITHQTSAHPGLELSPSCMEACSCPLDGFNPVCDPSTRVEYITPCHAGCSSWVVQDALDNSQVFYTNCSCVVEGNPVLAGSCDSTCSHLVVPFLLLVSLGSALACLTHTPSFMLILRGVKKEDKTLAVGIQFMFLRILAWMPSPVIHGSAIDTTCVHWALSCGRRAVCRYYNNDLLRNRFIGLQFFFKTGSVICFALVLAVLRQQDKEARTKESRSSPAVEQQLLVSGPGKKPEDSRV

OATP1B1 [2] = target: T2, OATP1B1 (Homo sapiens, UniProt Q9Y6L6); assay: Uptake of flavonoids by A431-OATP1B1 versus mock cells (APB fluorescence); type: cell-based; details: BSP 20 μM, M3′S 2 μM, 2 min
T2 construct: expressed in transfected cells; host or cells: A431
T2 sequence (Q9Y6L6 1-691): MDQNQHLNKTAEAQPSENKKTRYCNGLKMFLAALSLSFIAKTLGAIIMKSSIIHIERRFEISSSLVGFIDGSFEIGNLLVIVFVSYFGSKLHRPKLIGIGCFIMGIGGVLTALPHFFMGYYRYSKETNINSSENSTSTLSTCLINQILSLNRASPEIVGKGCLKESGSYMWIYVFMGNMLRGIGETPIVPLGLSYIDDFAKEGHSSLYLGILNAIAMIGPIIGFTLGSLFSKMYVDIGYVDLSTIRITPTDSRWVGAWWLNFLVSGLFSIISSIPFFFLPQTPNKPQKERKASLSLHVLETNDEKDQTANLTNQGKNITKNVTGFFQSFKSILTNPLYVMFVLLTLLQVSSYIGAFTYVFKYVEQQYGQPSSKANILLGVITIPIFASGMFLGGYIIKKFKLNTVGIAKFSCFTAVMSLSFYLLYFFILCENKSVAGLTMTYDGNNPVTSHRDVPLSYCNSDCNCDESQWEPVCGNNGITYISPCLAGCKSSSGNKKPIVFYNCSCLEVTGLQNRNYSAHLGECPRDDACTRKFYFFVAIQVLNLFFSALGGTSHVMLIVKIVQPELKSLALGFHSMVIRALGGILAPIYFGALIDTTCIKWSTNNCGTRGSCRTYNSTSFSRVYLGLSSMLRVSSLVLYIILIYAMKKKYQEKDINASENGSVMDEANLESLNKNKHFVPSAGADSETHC
Procedure: (§1) Direct uptake of AMP, MYR, and their sulfate metabolites were examined in A431 cells overexpressing OATP1B1 or OATP2B1, and in their mock‐transfected controls using APB as a fluorescence enhancer. One day before the uptake measurements, the cells were seeded onto 96‐well plates at a density of 80 000 cells/well in DMEM (200 μL). The following day, the cell culture medium was removed, and the cells were rinsed thrice with PBS (200 μL). Thereafter, the cells were preincubated with HBSS (50 μL) for 5 min at 37°C. The uptake reaction was initiated by the addition of a further 50 μL of HBSS containing AMP, MYR, or their sulfate conjugates (10 μM). After incubating for 15 min at 37°C, the reaction was stopped by removing the supernatant and rinsing the cells three times with ice‐cold PBS. Then PBS buffer (200 μL) containing APB (250 μg/mL) and BSA (1 mg/mL) was added to each well.[35] The fluorescence was read using an Enspire plate reader using the wavelengths listed in Section 2.7.
(§2) The concentration‐dependent uptake of M3′S was also tested under the same conditions, except the cells were incubated with 0–10 μM M3′S for 2 min (OATP1B1) or 5 min (OATP2B1).
(§3) To test the effect of BSP (a known inhibitor of OATPs[44]) on the cellular uptake of M3′S, cells were preincubated with HBSS buffer (50 μL) with or without BSP (20 μM) for 5 min at 37°C. Thereafter, we added 50 μL of HBSS containing M3′S (final concentration: 2 μM), and cells were further incubated at 37°C for 2 min (OATP1B1) or 5 min (OATP2B1). The reaction was stopped by removing the supernatant. After washing the cells with ice‐cold PBS, a PBS buffer with APB/BSA was added. Fluorescence was determined by applying an Enspire plate reader at excitation/emission wavelengths of 480/540 nm.

OATP2B1 [3] = target: T1, OATP2B1; assay: Uptake of flavonoids by A431-OATP2B1 versus mock cells (APB fluorescence); type: cell-based; details: BSP 20 μM, M3′S 2 μM, 5 min
Procedure: as §1, §2, §3

OATP1B1 [4] = target: T2, OATP1B1; design: method as in PMID 32661014; details: positive control, same experimental model; cited from earlier work
[5] = system: T3, human serum albumin (HSA); design: method as in PMID 30562928, PMID 28135601; details: same experimental conditions; cited from earlier work
T3 construct: purchased Merck (Darmstadt, Germany) A1653

CYP3A4 = system: T4, CYP3A4; assay: CYP3A4 assay (testosterone hydroxylation), CypExpress human kit; type: biochemical; details: 20 μM, 5 μM substrate
T4 construct: purchased Merck (Darmstadt, Germany)

CYP2C9 = details: 20 μM test substance, 5 μM substrate

Compound: O=C1OC(c2ccc(O)c(S(=O)(=O)O)c2)(c2ccc(O)c(S(=O)(=O)O)c2)c2c(Br)c(Br)c(Br)c(Br)c21 [BSP, bromosulfophthalein, reference compound]
IC50 (OATP2B1 [1]): 1300 nM | effect on uptake of M3′S into OATP1B1‐overexpressing cells (OATP1B1 [2]): considerably decreased the uptake of M3′S | effect on uptake of M3′S into OATP2B1‐overexpressing cells (OATP2B1 [3]): considerably decreased the uptake of M3′S | IC50 (OATP1B1 [4]): 60 nM

Compound: O=c1cc(-c2ccccc2)oc2cc(OS(=O)(=O)O)cc(O)c12 [chrysin‐7‐sulfate]
displacement of the site marker warfarin from HSA [5]: almost completely displaced the site marker

Compound: CC(=O)N1CCN(c2ccc(OCC3COC(Cn4ccnc4)(c4ccc(Cl)cc4Cl)O3)cc2)CC1 (centres unmarked) [ketoconazole]
effect on CYP3A4 metabolite formation (CYP3A4): marked decreases in metabolite formation

Compound: O=c1c(O)c(-c2ccc(O)c(OS(=O)(=O)O)c2)oc2cc(O)cc(O)c12 [quercetin‐3′‐sulfate]
displacement of the site marker warfarin from HSA [5]: almost completely displaced the site marker

effect on CYP2C9‐catalyzed diclofenac hydroxylation (metabolite formation) (CYP2C9): marked decreases in metabolite formation
Compound: Nc1ccc(S(=O)(=O)Nc2ccnn2-c2ccccc2)cc1 [sulfaphenazole]
